Several values for one entry are separate records, joined by “and”; a condition that tells them apart may be missing. Identical values can stand only once.
Legend:
[1] = test system: semi-synthetic organism (SSO) (strain YZ3); experiment: Replication and UBP retention in vivo in the semi-synthetic organism (streptavidin biotin shift, PAGE), Example 1; type: cell-based, Escherichia coli; details: for UBP retention in vivo, in words: discussion
Experimental: All bacteria were cultured in 100 μL of liquid 2×YT media (casein peptone 16 g/L, yeast extract 10 g/L, NaCl 5 g/L) supplemented with potassium phosphate (50 mM, pH 7) in 96-well microwell plates. When noted, antibiotics were used at the following concentrations: chloramphenicol, 5 μg/mL; ampicillin, 100 μg/mL. Cell growth, indicated as OD600, was measured using a Perkin Elmer EnVision 2103 Multilabel Reader with a 590/20 nm filter. Unless otherwise stated, molecular biology reagents were purchased from New England Biolabs (Ipswich, MA) and were used according to the manufacturer's protocols. As necessary, purification of nucleic acids was accomplished by micro-elution columns (Zymo Research Corp; Irvine, CA). All natural oligonucleotides were purchased from IDT (San Diego, CA), and oligonucleotides containing dNaM were synthesized by Biosearch Technologies (Petaluma, CA) with purification by reverse phase cartridge. Unnatural nucleotide triphosphates were prepared, and confirmed by MALDI-TOF and UV/Vis.
Plasmids containing the dNaM-dTPT3 UBP were prepared and used to transform the semi-synthetic organism (SSO). To create a template for in vivo replication assays, Golden Gate assembly was used to construct a derivative of the pUC19 plasmid in which a single dNaM-dTPT3 UBP was embedded within the TK1 sequence ([…]; […]), a context within which the UBP is well replicated in the SSO. Plasmids were then used to transform the SSO (strain YZ3). Following transformation, the SSO was allowed to recover at 37° C. for 1 h in media containing dNaMTP (125 μM) and dTPT3TP (25 μM). Cells were pelleted by centrifugation, resuspended in fresh media lacking unnatural triphosphates, split into 100-μL aliquots and then used to inoculate cultures containing different pairs of unnatural triphosphates at the specified concentrations. When the cell density reached an OD600 of ˜0.7, cells were pelleted and plasmids were recovered and PCR amplified with d5SICSTP and a biotinylated analog of dNaMTP, and UBP retention was determined by comparing the intensity of the streptavidin shifted and unshifted bands via PAGE.

[2] = molecular target: T1, Klenow fragment of E. coli DNA polymerase I (Escherichia coli, UniProt P00582); experiment: Steady-state kinetic assay of unnatural triphosphate insertion; type: biochemical; details: insertion opposite dY = dA in template
T1 construct: the Klenow fragment of E. coli DNA polymerase I
T1 sequence (P00582 324-928): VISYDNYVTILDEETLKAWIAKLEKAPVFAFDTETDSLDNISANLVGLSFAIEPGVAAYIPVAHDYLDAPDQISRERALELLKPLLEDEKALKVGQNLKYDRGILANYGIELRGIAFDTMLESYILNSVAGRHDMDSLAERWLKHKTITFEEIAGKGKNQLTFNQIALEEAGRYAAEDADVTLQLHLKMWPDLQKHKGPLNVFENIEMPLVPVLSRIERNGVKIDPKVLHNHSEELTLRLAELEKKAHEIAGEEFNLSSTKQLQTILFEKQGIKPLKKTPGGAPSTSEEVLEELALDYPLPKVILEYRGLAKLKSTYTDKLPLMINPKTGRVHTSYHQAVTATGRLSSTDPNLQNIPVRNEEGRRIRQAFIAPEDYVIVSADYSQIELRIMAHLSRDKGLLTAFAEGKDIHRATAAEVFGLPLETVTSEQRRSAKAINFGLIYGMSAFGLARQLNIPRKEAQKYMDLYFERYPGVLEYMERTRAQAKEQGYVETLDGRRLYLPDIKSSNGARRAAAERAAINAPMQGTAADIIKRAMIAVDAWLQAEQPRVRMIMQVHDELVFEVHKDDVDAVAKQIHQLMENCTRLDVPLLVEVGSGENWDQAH

[3] = context 1, dNaMTP 125 μM, dTPT3TP analog 125 μM
[4] = context 2 (AXA), dTPT3TP 2.5 μM, dNaMTP analog 2.5 μM
[5] = context 2 (AXA), dTPT3TP 2.5 μM, dNaMTP analog 10 μM
[6] = context 2 (AXA), dTPT3TP 2.5 μM, dNaMTP analog 25 μM
[7] = context 2 (AXA), dTPT3TP 10 μM, dNaMTP analog 2.5 μM
[8] = context 2 (AXA), dTPT3TP 10 μM, dNaMTP analog 10 μM
[9] = context 2 (AXA), dTPT3TP 10 μM, dNaMTP analog 25 μM
[10] = context 2 (AXA), dTPT3TP 25 μM, dNaMTP analog 2.5 μM
[11] = context 2 (AXA), dTPT3TP 25 μM, dNaMTP analog 10 μM
[12] = context 2 (AXA), dTPT3TP 25 μM, dNaMTP analog 25 μM
[13] = context 2 (AXA), paired with dSICSTP 10 μM, dNaMTP analog 25 μM
[14] = context 3 (CXC), dTPT3TP 2.5 μM, dNaMTP analog 2.5 μM
[15] = context 3 (CXC), dTPT3TP 2.5 μM, dNaMTP analog 10 μM
[16] = context 3 (CXC), dTPT3TP 2.5 μM, dNaMTP analog 25 μM
[17] = context 3 (CXC), dTPT3TP 10 μM, dNaMTP analog 2.5 μM
[18] = context 3 (CXC), dTPT3TP 10 μM, dNaMTP analog 10 μM
[19] = context 3 (CXC), dTPT3TP 10 μM, dNaMTP analog 25 μM
[20] = context 3 (CXC), dTPT3TP 25 μM, dNaMTP analog 2.5 μM
[21] = context 3 (CXC), dTPT3TP 25 μM, dNaMTP analog 10 μM
[22] = context 3 (CXC), dTPT3TP 25 μM, dNaMTP analog 25 μM
[23] = dNaMTP analog paired with dTPT3TP

SMILES | UBP retention [1, 3] | UBP retention (%) [1, 4] [%] | UBP retention (%) [1, 5] [%] | UBP retention (%) [1, 6] [%] | UBP retention (%) [1, 7] [%] | UBP retention (%) [1, 8] [%] | UBP retention (%) [1, 9] [%] | UBP retention (%) [1, 10] [%] | UBP retention (%) [1, 11] [%] | UBP retention (%) [1, 12] [%] | UBP retention [1, 13] [%] | UBP retention (%) [1, 14] [%] | UBP retention (%) [1, 15] [%] | UBP retention (%) [1, 16] [%] | UBP retention (%) [1, 17] [%] | UBP retention (%) [1, 18] [%] | UBP retention (%) [1, 19] [%] | UBP retention (%) [1, 20] [%] | UBP retention (%) [1, 21] [%] | UBP retention (%) [1, 22] | other results
Cc1cc2c(=S)n(C3CC(O)C(COP(=O)(O)OP(=O)(O)OP(=O)(O)O)O3)ccc2o1 (stereo not shown) [dFPT1] | significant UBP retention |  |  |  |  |  |  |  |  |  |  |  |  |  |  |  |  |  |  |  | 
COc1cc(C#N)ccc1C1CC(O)C(COP(=O)(O)OP(=O)(O)OP(=O)(O)O)O1 (stereo not shown) [dCNMOTP] |  | 92 ± 4 | 82 ± 24 | 91 ± 10 | 88 ± 9 | 91 ± 3 | 95 ± 2 | 103 ± 7 | 103 ± 1 | 101 ± 10 | 59 | 9 ± 1 | 22 ± 10 | 31 ± 14 | 13 ± 5 | 28 ± 7 | 35 ± 8 | 22 ± 7 | 25 ± 22 | 42% and 42 ± 18% | UBP retention (%) ([1]; Table 5, sequence context 1 (AXT), dTPT3TP 25 μM, dNaMTP or dCNMOTP 25 μM): 98%; UBP retention (%) ([1]; Table 5, sequence context 1 (AXT), dTPT3TP 25 μM, dNaMTP or dCNMOTP 25 μM, listed as dCNMO): 98 ± 7%; UBP retention (%) ([1]; Table 5, sequence context 1 (AXT), dTPT3TP 25 μM, dNaMTP or dCNMOTP 125 μM): 99 ± 8%; UBP retention (%) ([1]; Table 5, sequence context 2 (AXA), dTPT3TP 25 μM, dNaMTP or dCNMOTP 25 μM): 101 ± 10%; UBP retention (%) ([1]; Table 5, sequence context 2 (AXA), dTPT3TP 25 μM, dNaMTP or dCNMOTP 125 μM): 100 ± 10%; UBP retention (%) ([1]; Table 5, sequence context 3 (CXC), dTPT3TP 25 μM, dNaMTP or dCNMOTP 25 μM): 42%; UBP retention (%) ([1]; Table 5, sequence context 3 (CXC), dTPT3TP 25 μM, dNaMTP or dCNMOTP 25 μM, listed as dCNMO): 42 ± 18%; UBP retention (%) ([1]; Table 5, sequence context 3 (CXC), dTPT3TP 25 μM, dNaMTP or dCNMOTP 125 μM): 65%; UBP retention (%) ([1]; Table 5, sequence context 3 (CXC), dTPT3TP 25 μM, dNaMTP or dCNMOTP 125 μM, listed as dCNMO): 65 ± 7%; UBP retention (%) ([1]; Table 5, sequence context 4 (CXG), dTPT3TP 25 μM, dNaMTP or dCNMOTP 25 μM): 14 ± 5%; UBP retention (%) ([1]; Table 5, sequence context 4 (CXG), dTPT3TP 25 μM, dNaMTP or dCNMOTP 125 μM): 24%; UBP retention (%) ([1]; Table 5, sequence context 4 (CXG), dTPT3TP 25 μM, dNaMTP or dCNMOTP 125 μM, listed as dCNMO): 24 ± 13%
O=P(O)(O)OP(=O)(O)OP(=O)(O)OCC1OC(n2ccc3ncccc3c2=S)CC1O (stereo not shown) [dSNICS] | significant UBP retention |  |  |  |  |  |  |  |  |  |  |  |  |  |  |  |  |  |  |  | UBP retention in vivo, in words ([1]; dTPT3TP analog paired with dNaMTP): moderate retention at both low and high concentrations
C#Cc1cc(OC)c(C2CC(O)C(COP(=O)(O)OP(=O)(O)OP(=O)(O)O)O2)cc1F (stereo not shown) [dFEMOTP] |  |  |  |  |  |  |  |  |  |  |  |  |  |  |  |  |  |  |  |  | UBP retention in vivo, in words [1, 23]: well retained in vivo when supplemented at high concentrations
COc1cc(N=[N+]=[N-])ccc1C1CC(O)C(COP(=O)(O)OP(=O)(O)OP(=O)(O)O)O1 (stereo not shown) [dZMOTP] |  |  |  |  |  |  |  |  |  |  |  |  |  |  |  |  |  |  |  |  | UBP retention in vivo, in words [1, 23]: well retained in vivo when supplemented at high concentrations
COc1cc(C)ccc1C1CC(O)C(COP(=O)(O)OP(=O)(O)OP(=O)(O)O)O1 (stereo not shown) [dMMO2TP] |  | 17 ± 8 | 54 ± 19 | 47 ± 20 | 68 ± 16 | 67 ± 16 | 88 ± 7 | 63 ± 31 | 86 ± 11 | 90 ± 4 | 19 | 5 ± 3 | 10 ± 3 | 13 ± 4 | 9 ± 3 | 16 ± 10 | 22 ± 10 | 19 ± 8 | 36 ± 12 | 45% and 45 ± 20% | 
COc1cc(Cl)ccc1C1CC(O)C(COP(=O)(O)OP(=O)(O)OP(=O)(O)O)O1 (stereo not shown) [dClMOTP] |  | 73 ± 10 | 84 ± 7 | 86 ± 6 | 83 ± 9 | 89 ± 5 | 96 ± 2 | 80 ± 20 | 92 ± 4 | 98 ± 4 | 61 | 9 ± 2 | 7 ± 4 | 12 ± 2 | 9 ± 1 | 15 ± 2 | 14 ± 5 | 8 ± 4 | 20 ± 7 | 21% | UBP retention (%) ([1]; context 3 (CXC), dTPT3TP 25 μM, dNaMTP analog 25 μM, listed as dCIMOTP): 21 ± 14%
Cc1cn([C@H]2C[C@H](O)[C@@H](COP(=O)(O)OP(=O)(O)OP(=O)(O)O)O2)c(=O)[nH]c1=O [dTTP, reference compound] |  |  |  |  |  |  |  |  |  |  |  |  |  |  |  |  |  |  |  |  | kcat [2]: 0.085 s⁻¹ and 0.0853 ± 0.0127 s⁻¹
O=P(O)(O)OP(=O)(O)OP(=O)(O)OCC1OC(n2ccc3ccsc3c2=S)CC1O (stereo not shown) [dTPT3TP] | significant UBP retention |  |  |  |  |  |  |  |  |  |  |  |  |  |  |  |  |  |  |  | UBP retention ([1]; context 2 (AXA), dTPT3TP 10 μM paired with each of the four dNaMTP analogs at 25 μM): > 87%
O=P(O)(O)OP(=O)(O)OP(=O)(O)OCC1OC(n2ccc3ccccc3c2=S)CC1O (stereo not shown) [dSICSTP] | significant UBP retention |  |  |  |  |  |  |  |  |  |  |  |  |  |  |  |  |  |  |  | 
Cc1cc2c(=S)n(C3CC(O)C(COP(=O)(O)OP(=O)(O)OP(=O)(O)O)O3)ccc2s1 (stereo not shown) [dTPT1] | significant UBP retention |  |  |  |  |  |  |  |  |  |  |  |  |  |  |  |  |  |  |  | 
COc1cc(C)c(F)cc1C1CC(O)C(COP(=O)(O)OP(=O)(O)OP(=O)(O)O)O1 (stereo not shown) [d5FMTP] |  | 47 ± 14 | 61 ± 27 | 75 ± 6 | 69 ± 6 | 83 ± 5 | 87 ± 12 | 76 ± 9 | 95 ± 3 | 90 ± 7 | 68 | 9 ± 6 | 10 ± 5 | 11 ± 8 | 6 ± 4 | 14 ± 5 | 27 ± 14 | 14 ± 3 | 33 ± 16 | 49% and 49 ± 27% | 
Cc1ccc2ccn(C3CC(O)C(COP(=O)(O)OP(=O)(O)OP(=O)(O)O)O3)c(=S)c2c1 (stereo not shown) [d4SICS] | significant UBP retention |  |  |  |  |  |  |  |  |  |  |  |  |  |  |  |  |  |  |  | 

— patent US12497642B2, “Incorporation of unnatural nucleotides and methods of use in vivo thereof” (THE SCRIPPS RESEARCH INSTITUTE, priority 2017, dated 2025)
